The values that follow come from patent publication US8993614B2, “Substituted pyrrolidine-2-carboxamides” (Hoffmann-La Roche Inc., priority 2012, dated 2015).

Each structure is given as a SMILES string. Some results are limits rather than exact numbers.

For orientation: AUC(0-inf) means total exposure, with the tail of the curve extrapolated. Higher therefore signals more exposure. Usually AUC(0-t) stands for exposure summed from dosing to a finite time, without extrapolation to infinity. For orientation: Cmax means the highest concentration seen after dosing. In general, half-life refers to the time in which the quantity being followed falls by half. A higher half-life goes with slow decline. In general, solubility refers to how much of the substance goes into solution per volume. Lower therefore signals little dissolved substance.

One data set can be described thus: in vivo. As to conditions: iv, 4.37 mg/kg.
A further data set is described as follows: physchem. As to conditions: aqueous medium.

For the molecule `COc1cc(C(=O)O)ccc1NC(=O)[C@@H]1N[C@@H](CC(C)(C)C)[C@](C#N)(c2ccc(Cl)cc2F)[C@H]1c1cccc(Cl)c1F` [Compound B, 4-((2R,3S,4R,5S)-3-(3-chloro-2-fluorophenyl)-4-(4-chloro-2-fluorophenyl)-4-cyano-5-neopentylpyrrolidine-2-carboxamido)-3-methoxybenzoic acid], in the data set “in vivo”, the AUC(0-inf) came to 21.6 µg·h/mL, the AUC(0-t) was found to be 20.9 µg·h/mL, the highest concentration (Cmax) is 4.39 µg/mL and the half-life is 5.07 h. This molecule also had a solubility in “physchem” of under 1 µg/mL.
